Test results from US5066664A, “2-(hydroxy-2-alkylphenylamino)-oxazolines and thiazolines as anti-glaucoma and vasoconstrictive agents” (Allergan, Inc., priority 1990, dated 1991).
Counter-ions that a name gives are not always drawn. Like-named read-outs stand apart in the source and are kept apart here.

How the values were obtained:
[1] = target: alpha 1 adrenergic receptors; conditions: control substance; Shayes and Green, J. Pharmacol. Exp. Ther. 1971, Vol 180, pp 317-325; cited from earlier work
[2] = system: alpha 1 adrenergic receptors; assay: Rabbit Aorta: Alpha 1 adrenergic receptor assay (isolated thoracic aorta rings, tension); conditions: 37° C., cumulative addition
[3] = system: New Zealand white rabbit eyes; assay: Intraocular pressure (anti-glaucoma) assay in unanesthetized rabbits, topical unilateral administration; type: in vivo; conditions: for Maximum Difference in Intraocular Pressure After Solution Administration, Ipsilateral (Treated) Eye: 0.1% (W/V) in distilled water, single 50 microliter drop topically to one eye; for Maximum Difference in Intraocular Pressure After Solution Administration, Contralateral (Untreated) Eye: single 50 microliter drop to the other eye, contralateral (untreated) eye received saline
Description: The anti-glaucoma activity (ability to maintain or reduce intraocular pressure) of the compounds of the present invention was confirmed by the following assay procedure. This assay procedure is generally recognized in the art to provide pertinent information with respect to the anti-glaucomaactivity of the formulations assayed. Thus, each of the compounds of the invention to be tested was dissolved in distilled water at a concentration of 0.1% (W/V). Each of these solutions was administered topically and unilaterally to one eye of a drug-naive, unanesthetized New Zealand white rabbit in a single 50 microliter drop. The contralateral eye received an equal volume of saline prior to determining the intraocular pressure after the mixture was administered. Also, approximately 10 microliters of 0.5% (W/V) proparacine (topical anesthetic) was applied to the corneas of each of the rabbits before determining intraocular pressure. As a control test, six (6) other drug-naive, unanesthetized New Zealand white rabbits were treated and tested as described above except that no compound of the invention was included in the solutions administered to the eyes.
The intraocular pressure was determined in both eyes of each rabbit both before and after the solutions were administered. Such intraocular pressure determinations were made in the conventional manner using conventional equipment.

CNC[C@H](O)c1cccc(O)c1 [L-phenylephrine]
EC50 [1]: 182 nM

Cc1c(O)cccc1NC1=NCCO1 [Compound 1, 2-(3-Hydroxy-2-methylphenylamino)-Oxazoline, hydrochloride]
EC50 [2]: 602 ± 108 nM | Maximum Difference in Intraocular Pressure After Solution Administration, Ipsilateral (Treated) Eye [3]: -3.3 ± 1.0 mm Hg | Maximum Difference in Intraocular Pressure After Solution Administration, Contralateral (Untreated) Eye ([3]; 0.1% (W/V)): -7.3 ± 1.0 mm Hg | reduction of intraocular pressure in the contralateral eye compared with the ipsilateral eye ([3]; result in words, New Zealand white rabbit, 0.1% (W/V)): the reduction in the contralateral eye is greater than in the ipsilateral eye

Cc1c(O)ccc(NC2=NCCO2)c1C.Cl [Compound 2, 2-(2,3-Dimethyl-4-hydroxyphenylamino)-oxazoline, hydrochloride]
EC50 [2]: 19.9 ± 15.6 nM | Maximum Difference in Intraocular Pressure After Solution Administration, Ipsilateral (Treated) Eye [3]: -3.9 ± 1.9 mm Hg | Maximum Difference in Intraocular Pressure After Solution Administration, Contralateral (Untreated) Eye ([3]; 0.1% (W/V)): -3.3 ± 0.5 mm Hg
